Data taken from patent US20150105252A1, “SUBSTITUTED PYRAZOLES AS HERBICIDES” (E I DU PONT DE NEMOURS AND COMPANY, priority 2013, published 2015).

How the values were obtained:
Conditions in all cases: scale 0 to 100
bromegrass, downy = experiment: Test D preemergence; type: in vivo, Bromus tectorum
Text: (§1) Seeds of plant species selected from bluegrass (annual bluegrass, Poa annua), blackgrass (Alopecurus myosuroides), canarygrass (littleseed canarygrass, Phalaris minor), chickweed (common chickweed, Stellaria media), galium (catchweed bedstraw, Galium aparine), bromegrass, downy (downy bromegrass, Bromus tectorum), field poppy (Papaver rhoeas), field violet (Viola arvensis), foxtail, green (green foxtail, Setaria viridis), deadnettle (henbit deadnettle, Lamium amplexicaule), ryegrass, Italian (Italian ryegrass, Lolium multiflorum), kochia (Kochia scoparia), lambsquarters (Chenopodium album), oilseed rape (Brassica napus), pigweed (redroot pigweed, Amaranthus retroflexus), chamomile (scentless chamomile, Matricaria inodora), speedwell (bird's-eye speedwell, Veronica persica), barley, spring (spring barley, Hordeum vulgare), wheat, spring (spring wheat, Triticum aestivum), buckwheat, wild (wild buckwheat, Polygonum convolvulus), mustard, wild (wild mustard, Sinapis arvensis), oat, wild (wild oat, Avena fatua), radish, wild (wild radish, Raphanus raphanistrum), windgrass (Apera spica-venti), Russian thistle (Salsola kali), barley, winter (winter barley, Hordeum vulgare), and wheat, winter (winter wheat, Triticum aestivum) were planted into a silt loam soil and treated preemergence with test chemicals formulated in a non-phytotoxic solvent mixture which included a surfactant.
(§2) At the same time, these species were planted in pots containing Redi-Earth® planting medium (Scotts Company, 14111 Scottslawn Road, Marysville, Ohio 43041) comprising spaghnum peat moss, vermiculite, wetting agent and starter nutrients and treated with postemergence applications of the test chemicals formulated in the same manner. Plants ranged in height from 2 to 18 cm (1- to 4-leaf stage). Treated plants and controls were maintained in a controlled growth environment for 14 to 21 days after which time all species were compared to controls and visually evaluated. Plant response ratings, summarized in Table D, are based on a scale of 0 to 100 where 0 is no effect and 100 is complete control. A dash (-) response means no test result.

oilseed rape = experiment: Test D preemergence; type: in vivo, Brassica napus
Text: as §1, §2

speedwell = experiment: Test D postemergence; type: in vivo, Veronica persica
Text: as §1, §2

Q: What does the source list for CCc1cc(C(=O)NC(C)C)nn1Cc1ccnc(C(F)(F)F)c1 [Compound 103]?
A: Plant response rating, Bromegrass, Downy (bromegrass, downy; 31 g ai/ha): 5; Plant response rating, Bromegrass, Downy (bromegrass, downy; 62 g ai/ha): 10; Plant response rating, Bromegrass, Downy (bromegrass, downy; 125 g ai/ha): 40; Plant response rating, Bromegrass, Downy (bromegrass, downy; 250 g ai/ha): 85; Plant response rating, Oilseed Rape (oilseed rape; 31 g ai/ha): 25; Plant response rating, Oilseed Rape (oilseed rape; 62 g ai/ha): 30; Plant response rating, Oilseed Rape (oilseed rape; 125 g ai/ha): 35; Plant response rating, Oilseed Rape (oilseed rape; 250 g ai/ha): 95; Speedwell plant response rating (speedwell; Postemergence, 31 g ai/ha): 35; Speedwell plant response rating (speedwell; Postemergence, 125 g ai/ha): 55; Speedwell plant response rating (speedwell; Postemergence, 250 g ai/ha): 70; Speedwell plant response rating (speedwell; postemergence, 62 g ai/ha): 45

Q: How did the “Plant response rating, Bromegrass, Downy” value (bromegrass, downy; 31 g ai/ha) turn out when CCCc1cc(C(=O)NCC(F)(F)F)nn1Cc1cc(C(F)(F)F)nn1C [Compound 138] was run?
A: Its value is 10.

Q: What about the “Plant response rating, Bromegrass, Downy” value (bromegrass, downy; 62 g ai/ha) of the same compound?
A: Its value is 15.

Q: And the “Plant response rating, Bromegrass, Downy” value (bromegrass, downy; 125 g ai/ha)?
A: Its value is 20.

Q: What about the “Plant response rating, Bromegrass, Downy” value (bromegrass, downy; 250 g ai/ha) of the same compound?
A: Its value is 65.

Q: And the “Plant response rating, Oilseed Rape” value (oilseed rape; 62 g ai/ha)?
A: Its value is 40.

Q: What about the “Plant response rating, Oilseed Rape” value (oilseed rape; 125 g ai/ha) of the same compound?
A: The value was 100.

Q: And the “Plant response rating, Oilseed Rape” value (oilseed rape; 250 g ai/ha)?
A: Its value is 100.

Q: What about the “Speedwell plant response rating” value (speedwell; Postemergence, 31 g ai/ha) of the same compound?
A: Its value is 100.

Q: What about the “Speedwell plant response rating” value (speedwell; Postemergence, 125 g ai/ha) of the same compound?
A: The value was 100.

Q: And the “Speedwell plant response rating” value (speedwell; Postemergence, 250 g ai/ha)?
A: Its value is 100.

Q: What about the “Speedwell plant response rating” value (speedwell; postemergence, 62 g ai/ha) of the same compound?
A: The value was 100.

Q: CCOc1cc(C(=O)NC2CC2)nn1Cc1ccnc(C(F)(F)F)c1 [Compound 189] was tested. Which “Plant response rating, Bromegrass, Downy” value (bromegrass, downy; 31 g ai/ha) did it give?
A: The value was 0.

Q: And the “Plant response rating, Bromegrass, Downy” value (bromegrass, downy; 62 g ai/ha)?
A: The value was 15.

Q: And the “Plant response rating, Bromegrass, Downy” value (bromegrass, downy; 125 g ai/ha)?
A: Its value is 20.

Q: And the “Plant response rating, Bromegrass, Downy” value (bromegrass, downy; 250 g ai/ha)?
A: The value was 55.

Q: And the “Plant response rating, Oilseed Rape” value (oilseed rape; 62 g ai/ha)?
A: The value was 55.

Q: What about the “Plant response rating, Oilseed Rape” value (oilseed rape; 125 g ai/ha) of the same compound?
A: Its value is 80.

Q: What about the “Plant response rating, Oilseed Rape” value (oilseed rape; 250 g ai/ha) of the same compound?
A: Its value is 100.

Q: What about the “Speedwell plant response rating” value (speedwell; Postemergence, 31 g ai/ha) of the same compound?
A: Its value is 70.

Q: What about the “Speedwell plant response rating” value (speedwell; Postemergence, 125 g ai/ha) of the same compound?
A: Its value is 85.

Q: What about the “Speedwell plant response rating” value (speedwell; Postemergence, 250 g ai/ha) of the same compound?
A: Its value is 90.

Q: What about the “Speedwell plant response rating” value (speedwell; postemergence, 62 g ai/ha) of the same compound?
A: The value was 70.
